Test results reported in ChEMBL document CHEMBL1148960, “Furanolabdane diterpenes from Hypoestes purpurea” (J Nat Prod, 2004).

test system: KB; assay: Cytotoxicity against human KB cells after 24 hrs by MTT assay; format: functional, cell-based

Compared with `CC1=C[C@H]2OC(=O)[C@@]3(C)CCC[C@@](C)([C@@H]23)[C@H]1CC(=O)c1ccoc1` [HYPOPURIN A], `CC1=C[C@H]2OC3OC(=O)[C@@]4(C)CCC[C@@]3([C@@H]24)[C@H]1CC(=O)c1ccoc1` [HYPOPURIN B] is higher in IC50: 9.4 µM for the first, greater than 100 µM for the second. The first is the more potent here.

`C[C@@]12C=C[C@@H]3[C@]4(CCC[C@]3(C)C(=O)OC4O1)[C@H]2CC(=O)c1ccoc1` (some centres undefined) [HYPOPURIN C] and `CC1=C[C@H]2OC(=O)[C@@]3(C)CCC[C@@](C)([C@@H]23)[C@H]1CCC1=CCOC1=O` [HYPOPURIN D] cannot be ordered by IC50: greater than 100 µM for the first, greater than 100 µM for the second.
